Values of other authors in patent US6924273B2, “Chondroprotective/restorative compositions and methods of use thereof” (priority 2000, dated 2005).

Key:
[1] = oral administration
rats = conditions: 5000 mg/kg orally
mice = conditions: 5000 mg/kg orally
[2] = oral administration; remark: listed apart in the source

Chondroitin sulfate [CS]
bioavailability [1]: around 15%

N[C@H]1C(O)O[C@H](CO)[C@@H](O)[C@@H]1O.O=S(=O)(O)O (some centres unmarked) [Glucosamine sulfate]
mortality (no LD50 established) (rats): no mortality | mortality (no LD50 established) (mice): no mortality | absorbed [2]: greater than 90%

N[C@H]1C(O)O[C@H](CO)[C@@H](O)[C@@H]1O (some centres unmarked) [Glucosamine]
solubility in water: very soluble in water
